Source: patent publication US20250195448A1, “CELL TYPE SELECTIVE DELIVERY OF EXOSOME CARGO USING NOTCH LIGAND-RECEPTOR SYSTEM” (Northwestern University, priority 2023, published 2025)
“Also recorded” adds a separate entry of the source.

Columns and labels:
Alix = Alix phosphorylation in Mg^2+-free glycine-treated neurons (IP of Alix, WB p-S/T); type: cell-based, rat; details: for effect on Mg^2+-free glycine-induced Alix phosphorylation: H89 20 μM, staurosporine 1 μM, APV 50 μM, KN93 10 μM, AIP 1 μM
Description: Neurons were pretreated with DMSO (1:1000) or dynasore (80 μM, Sigma-Aldrich, Cat #SML0340) or H89 (20 μM, Sigma-Aldrich, Cat #B1427) or staurosporine (1 μM, Tocris, Cat #1285) or APV (50 μM, Sigma-Aldrich, Cat #A5282) or KN93 (10 μM, Sigma-Aldrich, Cat #K1385) or AIP (1 μM, Anaspec, Cat #AS-64929) for 30 mins at 37° C. in a humidified 5% CO2 atmosphere incubator. Then, neuron culture medium was carefully removed from dishes. The collected medium was then kept at 37° C. in a humidified 5% CO2 atmosphere incubator. The neurons were washed three times with Veh or Mg^2+-free glycine and incubated for 5 min with solutions containing different inhibitors. Then neurons were washed twice with Veh solution, the saved culture medium was returned and maintained in incubator for assigned durations (37° C., 5% CO2).
WedgeWell™ Tris-Glycine Mini Protein Gels (Fisher Scientific, Cat #XP04125BOX, XP04120BOX and XV00100PK20) were used for electrophoresis. After electrophoresis, proteins were transferred onto nitrocellulose membranes (Thermo Fisher, Cat #4500002). For WB, the membranes were blocked with 10% bovine serum albumin (BSA, Jackson immunoResearch laboratories, Cat #001-000-162) in TBST solution (Tris-buffered saline, 0.1% Tween 20) for one hour in room temperature (RT). Then membranes were incubated with primary antibodies in incubation solution (3% BSA in TBST) overnight at 4° C. with mild agitation. Following primary antibodies were used: mouse anti-Alix (1:1000, Cell Signaling Technology, Cat #2171S, RRID: AB_2299455), rabbit anti-Alix (1:1000, Cell Signaling Technology, Cat #18269, RRID: AB_2798796), mouse anti-Tsg101 (1:1000, Santa Cruz Biotechnology, Cat #sc-7964, RRID: AB_671392), mouse anti-CD81 (1:1000, Santa Cruz Biotechnology, Cat #sc-166029, RRID: AB_2275892), rabbit anti-Notch1ICD (1:1000, Abcam, Cat #ab52627, RRID: AB_881725), rabbit anti-Notch2ICD (1:1000, Cell Signaling Technology, Cat #5732S, RRID: AB_10693319), rabbit anti-activated Notch1 (1:1000, Abcam, Cat #ab52301, RRID: AB_881726), rabbit anti-activated Notch2 (1:1000, MyBioSource, Cat #MBS9410510), rabbit anti-Sdcbp (1:1000, Abcam, Cat #ab19903, RRID: AB_445200 and Cell Signaling Technology, Cat #27964), rabbit anti-GM130 (1:1000, Abcam, Cat #ab52649, RRID: AB_880266), rabbit anti-Hes1 (1:1000, Cell Signaling Technology, Cat #11988S, RRID: AB_2728766 and Abcam, Cat #ab71559, RRID: AB_1209570), chicken anti-Tuj1 (1:2000, Novus Biologicals, Cat #NB100-1612, RRID: AB_10000548), rabbit anti-p-S/T (1:1000, Cell Signaling Technology, Cat #9624S, RRID: AB_331817), mouse anti-PSD95 (1:2000, Thermo Fisher Scientific, Cat #MA1-046, RRID: AB_2092361), rabbit anti-PSD95(pS295) (1:1000, Abcam, Cat #ab76108, RRID: AB_1310621), rabbit anti-GAPDH (1:2000, Cell Signaling Technology, Cat #2118, RRID: AB_561053), rabbit anti-GluA1 (1:1000, EMD Millipore, Cat #PC246, RRID: AB_564636) and guinea pig anti-Bassoon (1:1000, Synaptic Systems, Cat #141 318, RRID: AB_2927388). After 3×10 mins intense wash in TBST solution, membranes were incubated with corresponding secondary antibodies for one hour at RT with mild agitation. Following secondary antibodies were used: goat-anti-rabbit poly-HRP (1:2000, Thermo Scientific, Cat #32260), goat-anti-mouse poly-HRP (1:2000, Thermo Scientific, Cat #32230), goat-anti-chicken HRP (1:2000, Abcam, Cat #ab97135) and Goat anti-Guinea Pig poly-HRP (1:2000, Fisher Scientific, Cat #OB6090-05). […] Fiji (NIH) was used for quantification.

Notch signaling pathway = assay: Pharmacological treatments of neurons, Mg^2+-free glycine-induced Notch activation (WB); type: cell-based, rat; details: 90 mins after treatment; for effect on Mg^2+-free glycine-induced elevation of activated-Notch1, -Notch2 and Hes1 protein levels: APV 50 μM, dynasore 80 μM pretreatment
Description: Synaptic NMDARs were activated as previously described^16,63. […] The osmolarity was adjusted to 300-330 mOsm/l). […] The osmolarity was adjusted to 300-330 mOsm/l). […] Then, neuron culture medium was carefully removed from dishes. […] Then neurons were washed twice with Veh solution, the saved culture medium was returned and maintained in incubator for assigned durations (37° C., 5% CO2). Neuron samples were collected and resuspended in a RIPA lysis buffer (50 mM Tris, 150 mM NaCl, 0.1% SDS, 1 mM EDTA, 0.5% sodium deoxycholate, 1% Triton X-100, 1× protease inhibitor cocktail (Thermo Fisher Scientific, Cat #78443), 1× phosphatase inhibitor (Thermo Fisher Scientific, Cat #78420), pH 7.4). The resuspended lysates were vortexed for 20 s and then incubated on ice for 30 min and centrifuged at 16,200 g for 15 mins. The supernatants were mixed with 4×SDS loading buffer at a 3:1 ratio. The mixtures were boiled at 95° C. for 5 mins. […] Fiji (NIH) was used for quantification.

hippocampal neurons = assay: Mg^2+-free glycine-induced neuronal EV release; type: cell-based; details: for effect on Mg^2+-free glycine-induced EV release: APV 50 μM, H89 20 μM
Description: Synaptic NMDARs were activated as previously described^16,63. […] The osmolarity was adjusted to 300-330 mOsm/l). […] The osmolarity was adjusted to 300-330 mOsm/l). […] The EV-containing supernatant was centrifuged at 3000×g for 30 mins at 4° C. to remove residual neurons and large debris. Then, the supernatant was concentrated using a molecular weight cutoff (MWCO) filter (10 KDa, EMD Millipore, Cat #UFC801024) to 0.5 ml. The concentrated solution was then fractionated into 10 fractions (0.5 ml in EV-free PBS, MEDIATECH INC CA, Cat #21-040-CV) using a qE-Voriginal-35 nm SEC column (Izon Science, Cat #SP5-USD) with an automated fraction collector V1 (Izon Science, Cat #AFC-V1). For each experimental group, EVs released from three 60 mm dishes of mouse hippocampal neurons were pooled and enriched by the SEC method as described above. Then take 10 μl of the enriched EVs from each sample and dilute them with 990 μl EV-free PBS. The samples were centrifuged at 2500×g for 15 mins. Mix 0.5 ml of each sample with 0.5 ml incubation solution. Load 70 μl of each mixture to an ExoView Mouse Tetraspanin chip (Nanoview Bioscience, Cat #EV-TETRA-M2) and incubate overnight at RT in dark. The next day, unbound EVs were washed off the chip by five 3-min washes with the solution A. After incubating with the block solution for 1 hr (RT), the chips were incubated with anti-tetraspanin mixture (Included in the kit, anti-CD81, CF® 555, anti-CD9, CF® […] and anti-CD63, CF® 647) for 1 hr on an orbital shaker. The chips were washed with the solution A twice (3 mins each) and the solution B 5 times (3 min each). The chips were then rinsed in MilliQ water to remove excess solution B. Air dry the chips. A NanoView R100 equipment (Nanoview Bioscience) was used to scan the chips. The data was analyzed by ExoView Analyzer 3.1.4 (Nanoview Bioscience). […] Then, neuron culture medium was carefully removed from dishes. […] Then neurons were washed twice with Veh solution, the saved culture medium was returned and maintained in incubator for assigned durations (37° C., 5% CO2).

Notch target genes = details: 60 mins after treatment
neurons = details: 30 mins treatment
Description: An aliquot of each sample (100 l) was transferred from the culture wells to the wells of a 96-well plate and mixed with 100 μl of the reaction solution provided by the kit. Optical density was measured at 492 nm 45 min later using a Synergy HTX multi-mode microplate reader (Biotek). Background absorbance at 620 nm was subtracted. The maximal releasable LDH in each well was then obtained by a 15 min incubation with 1% Triton X-100 at the end of each experiment.

PSD95 = tested on: PSD95
Description: WedgeWell™ Tris-Glycine Mini Protein Gels (Fisher Scientific, Cat #XP04125BOX, XP04120BOX and XV00100PK20) were used for electrophoresis. After electrophoresis, proteins were transferred onto nitrocellulose membranes (Thermo Fisher, Cat #4500002). For WB, the membranes were blocked with 10% bovine serum albumin (BSA, Jackson immunoResearch laboratories, Cat #001-000-162) in TBST solution (Tris-buffered saline, 0.1% Tween 20) for one hour in room temperature (RT). Then membranes were incubated with primary antibodies in incubation solution (3% BSA in TBST) overnight at 4° C. with mild agitation. […] Fiji (NIH) was used for quantification.

Description for rat hippocampal neurons: DIV 18 rat hippocampal neurons in 6-well plate (cover glasses, Carolina, Cat #633037, 1.5×10^6 cells per well) were used for this assay. At DIV 16, neurons were co-transfected with either 1 μg mCherry+GFP or 1 μg mCherry-Alix+GFP plasmids using HilyMax (Dojindo Cat #H357-15). Two days later, the neurons were used for live cell imaging analysis. Neurons (put in a magnetic imaging chamber, Warner Instruments, Cat #QR-40L) were rinsed three times with warm (37° C.) extracellular solution (pH 7.4, 150 mM NaCl, 5 mM KCl, 1 mM MgCl2, 2 mM CaCl2), 10 mM glucose, 10 mM HEPES). Then the neurons were placed into a heating stage (37° C.) supplied with a humidified 5% CO2 atmosphere and were incubated with this solution for 20 mins in a humidified 5% CO2 atmosphere incubator at 37° C. […] Then the extracellular solution was put back. Images were captured using a Nikon A1R+ confocal laser microscope and a 100× oil objective lens (also was kept at 37° C. during recording). […] The data was imported to Fiji (NIH) for further analysis.

| Compound | effect on Mg^2+-free glycine-induced Alix phosphorylation (Alix) | effect on Mg^2+-free glycine-induced elevation of activated-Notch1, -Notch2 and Hes1 protein levels (Notch signaling pathway) | effect on Mg^2+-free glycine-induced EV release (hippocampal neurons) | also measured |
| --- | --- | --- | --- | --- |
| N[C@H](CCCP(=O)(O)O)C(=O)O [APV, D-2-amino-5-phosphonovalerate] | blocked; also recorded: significantly reduced | inhibited | suppress; also recorded: blocked | – |
| NCC(=O)O [Mg^2+-free glycine, glycine] | – | – | – | dendritic spine enlargement (rat hippocampal neurons): enlarged dendritic spines; Alix phosphorylation after Mg^2+-free glycine stimulation (Alix): leads to Alix phosphorylation; Notch target gene expression (Notch target genes): activated; plasma membrane rapture (LDH) (neurons): does not cause; phosphorylation of Ser295 (pS295) in PSD95 (PSD95): induces; levels of activated-Notch1, -Notch2 and Hes1 after Mg^2+-free glycine treatment (Notch signaling pathway; WB): elevated; neuronal EV biogenesis and release (hippocampal neurons; Mg^2+-free glycine solution, 30 mins): triggered |
| COc1ccc(S(=O)(=O)N(CCO)c2ccccc2CN(C)C/C=C/c2ccc(Cl)cc2)cc1 [KN93] | failed to block | – | – | – |
| CN[C@@H]1C[C@H]2O[C@@](C)([C@@H]1OC)n1c3ccccc3c3c4c(c5c6ccccc6n2c5c31)C(=O)NC4 [Stau, staurosporine] | not significant | – | – | – |
| O=S(=O)(NCCNC/C=C/c1ccc(Br)cc1)c1cccc2cnccc12 [H89] | significantly inhibit; also recorded: inhibited | – | suppress; also recorded: blocked | – |
| O=C(N/N=C/c1ccc(O)c(O)c1)c1cc2ccccc2cc1O [Dynasore] | – | blocked elevation | – | effect on Mg^2+-free glycine-induced elevation of activated-Notch1, -Notch2 and Hes1 protein levels (Notch signaling pathway; listed as dynasore): inhibited |
